The values that follow come from publication PMC10528299, “Targeting FAK/PYK2 with SJP1602 for Anti-Tumor Activity in Triple-Negative Breast Cancer” (Current Issues in Molecular Biology, 2023).

Each structure is given as a SMILES string. Changes are numbered by the printed parent chain.

What all share (assay): Eurofins kinase profiling
Common to all, as to format: biochemical

In one assay the target is T1, HIPK2(h) (Homo sapiens, UniProt Q9H2X6).
T1 construct: purchased Eurofins KinaseProfiler
The following applies: read-out: residual kinase activity HIPK2(h). The procedure, abridged: (§1)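 Each kinase is incubated with compound (1 µM). Activity is then determined radiometrically from transfer of labeled phosphate.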

The target of another assay is T2, Flt3(h) (Homo sapiens, UniProt P36888).
T2 construct: purchased Eurofins KinaseProfiler
T2 sequence (P36888 27-993): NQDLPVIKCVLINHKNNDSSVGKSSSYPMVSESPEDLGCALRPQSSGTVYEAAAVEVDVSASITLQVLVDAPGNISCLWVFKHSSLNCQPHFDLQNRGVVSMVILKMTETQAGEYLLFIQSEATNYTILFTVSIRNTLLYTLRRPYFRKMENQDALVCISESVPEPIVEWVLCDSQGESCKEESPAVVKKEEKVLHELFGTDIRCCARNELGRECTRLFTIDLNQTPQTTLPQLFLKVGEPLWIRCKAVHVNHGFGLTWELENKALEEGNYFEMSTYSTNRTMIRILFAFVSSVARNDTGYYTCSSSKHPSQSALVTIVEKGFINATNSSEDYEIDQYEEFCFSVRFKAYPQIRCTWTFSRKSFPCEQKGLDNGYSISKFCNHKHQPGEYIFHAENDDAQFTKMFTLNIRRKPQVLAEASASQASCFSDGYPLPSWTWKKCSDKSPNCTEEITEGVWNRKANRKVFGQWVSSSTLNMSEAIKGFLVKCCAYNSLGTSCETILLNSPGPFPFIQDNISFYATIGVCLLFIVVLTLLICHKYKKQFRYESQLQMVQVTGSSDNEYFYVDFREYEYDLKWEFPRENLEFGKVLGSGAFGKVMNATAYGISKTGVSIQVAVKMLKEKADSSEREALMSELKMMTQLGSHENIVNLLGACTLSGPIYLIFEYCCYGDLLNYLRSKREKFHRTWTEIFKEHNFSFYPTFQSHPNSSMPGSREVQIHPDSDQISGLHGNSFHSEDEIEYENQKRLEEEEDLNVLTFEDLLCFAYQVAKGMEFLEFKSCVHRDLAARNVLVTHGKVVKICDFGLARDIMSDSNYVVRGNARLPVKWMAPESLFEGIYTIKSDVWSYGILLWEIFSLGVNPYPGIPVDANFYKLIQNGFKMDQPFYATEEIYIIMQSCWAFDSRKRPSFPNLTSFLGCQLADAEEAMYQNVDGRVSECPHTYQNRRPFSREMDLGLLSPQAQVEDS
The following applies: read-out: residual kinase activity Flt3(h). A digest of the protocol: as §1

Another assay has as its target T3, IR(h), activated (Homo sapiens, UniProt P06213).
T3 construct: purchased Eurofins KinaseProfiler
The settings on record: 1 µM. A digest of the protocol:
as §1

The next assay concerns the target T4, NIM1(h) (Homo sapiens, UniProt Q8IY84).
T4 construct: purchased Eurofins KinaseProfiler
The following applies: read-out: residual kinase activity NIM1(h). A digest of the protocol:
as §1

For the next assay, the target named is T5, EGFR(T790M)(h) (Homo sapiens, UniProt P00533, T790M).
T5 construct: purchased Eurofins KinaseProfiler
The settings on record: read-out: residual kinase activity EGFR(T790M)(h). A digest of the protocol:
as §1

For another assay, the target named is T6, Snk(h) (Homo sapiens, UniProt Q9NYY3).
T6 construct: purchased Eurofins KinaseProfiler
The following applies: read-out: residual kinase activity Snk(h). A digest of the protocol:
as §1

A further assay concerns the target T7, EGFR(L861Q)(h) (Homo sapiens, UniProt P00533, L861Q).
T7 construct: purchased Eurofins KinaseProfiler
The settings on record: read-out: residual kinase activity EGFR(L861Q)(h). A digest of the protocol:
as §1

For a further assay, the target named is T8, DAPK1(h) (Homo sapiens, UniProt P53355).
T8 construct: purchased Eurofins KinaseProfiler
The following applies: read-out: residual kinase activity DAPK1(h). The procedure, abridged: as §1

The next assay deals with T9, HIPK3(h) (Homo sapiens, UniProt Q9H422).
T9 construct: purchased Eurofins KinaseProfiler
The settings on record: read-out: residual kinase activity HIPK3(h). A digest of the protocol:
as §1

The next assay has as its target T10, Flt3(D835Y)(h) (Homo sapiens, UniProt P36888, D835Y).
T10 construct: purchased Eurofins KinaseProfiler
T10 sequence (P36888 27-993 D835Y): T2 sequence (P36888 27-993) with D809Y
The following applies: read-out: residual kinase activity Flt3(D835Y)(h). The procedure, abridged:
as §1

In the next assay the target is T11, Pim-1(h) (Homo sapiens, UniProt P11309).
T11 construct: purchased Eurofins KinaseProfiler
The settings on record: read-out: residual kinase activity Pim-1(h). The procedure, abridged:
as §1

T8 sequence (P53355 whole entry): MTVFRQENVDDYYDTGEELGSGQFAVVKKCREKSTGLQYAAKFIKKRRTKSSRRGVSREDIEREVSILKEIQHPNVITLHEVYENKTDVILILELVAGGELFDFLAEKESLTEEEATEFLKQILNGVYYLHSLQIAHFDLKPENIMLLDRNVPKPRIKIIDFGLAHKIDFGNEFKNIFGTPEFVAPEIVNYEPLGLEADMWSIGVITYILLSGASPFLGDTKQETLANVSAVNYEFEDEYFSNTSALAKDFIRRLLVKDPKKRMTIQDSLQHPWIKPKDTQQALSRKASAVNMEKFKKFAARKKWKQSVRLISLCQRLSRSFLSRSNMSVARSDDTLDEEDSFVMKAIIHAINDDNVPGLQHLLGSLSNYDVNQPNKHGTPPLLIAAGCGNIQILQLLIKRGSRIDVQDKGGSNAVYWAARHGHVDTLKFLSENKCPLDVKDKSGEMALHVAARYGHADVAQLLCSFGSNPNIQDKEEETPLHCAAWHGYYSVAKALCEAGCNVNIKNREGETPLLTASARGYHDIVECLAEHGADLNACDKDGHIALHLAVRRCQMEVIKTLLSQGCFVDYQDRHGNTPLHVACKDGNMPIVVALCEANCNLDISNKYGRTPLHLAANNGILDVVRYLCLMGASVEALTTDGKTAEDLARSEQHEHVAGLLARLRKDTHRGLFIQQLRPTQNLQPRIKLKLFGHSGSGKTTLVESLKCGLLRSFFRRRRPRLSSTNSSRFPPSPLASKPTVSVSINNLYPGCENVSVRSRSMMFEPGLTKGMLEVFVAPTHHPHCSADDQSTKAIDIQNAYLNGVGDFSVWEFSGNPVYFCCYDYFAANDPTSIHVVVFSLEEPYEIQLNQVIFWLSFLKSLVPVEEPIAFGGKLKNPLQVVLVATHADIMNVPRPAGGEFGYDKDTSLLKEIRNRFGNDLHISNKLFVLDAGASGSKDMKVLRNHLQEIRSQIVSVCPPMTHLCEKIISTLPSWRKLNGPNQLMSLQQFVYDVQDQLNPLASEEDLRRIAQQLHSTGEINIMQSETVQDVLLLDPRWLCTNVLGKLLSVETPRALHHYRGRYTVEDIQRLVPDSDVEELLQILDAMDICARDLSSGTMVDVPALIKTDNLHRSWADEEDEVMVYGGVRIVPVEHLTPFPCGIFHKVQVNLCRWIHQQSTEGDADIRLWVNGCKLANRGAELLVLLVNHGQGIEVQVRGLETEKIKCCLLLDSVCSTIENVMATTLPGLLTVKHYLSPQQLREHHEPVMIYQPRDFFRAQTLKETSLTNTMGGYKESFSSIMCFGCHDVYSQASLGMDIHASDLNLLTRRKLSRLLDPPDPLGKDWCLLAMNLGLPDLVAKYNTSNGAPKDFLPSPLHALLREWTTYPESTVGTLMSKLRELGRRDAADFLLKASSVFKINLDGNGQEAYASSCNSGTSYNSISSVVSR
T4 sequence (Q8IY84 whole entry): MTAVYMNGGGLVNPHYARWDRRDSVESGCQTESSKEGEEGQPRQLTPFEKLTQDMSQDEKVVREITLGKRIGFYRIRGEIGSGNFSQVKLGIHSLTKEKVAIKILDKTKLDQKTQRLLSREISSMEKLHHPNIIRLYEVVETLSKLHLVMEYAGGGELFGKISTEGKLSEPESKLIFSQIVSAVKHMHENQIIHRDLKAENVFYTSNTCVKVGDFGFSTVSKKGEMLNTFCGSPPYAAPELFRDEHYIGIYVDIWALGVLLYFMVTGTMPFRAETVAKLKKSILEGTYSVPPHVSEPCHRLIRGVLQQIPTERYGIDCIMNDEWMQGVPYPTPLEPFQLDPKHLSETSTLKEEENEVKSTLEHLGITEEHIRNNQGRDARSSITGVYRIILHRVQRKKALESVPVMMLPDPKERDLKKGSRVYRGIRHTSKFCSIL
T3 sequence (P06213 28-1382): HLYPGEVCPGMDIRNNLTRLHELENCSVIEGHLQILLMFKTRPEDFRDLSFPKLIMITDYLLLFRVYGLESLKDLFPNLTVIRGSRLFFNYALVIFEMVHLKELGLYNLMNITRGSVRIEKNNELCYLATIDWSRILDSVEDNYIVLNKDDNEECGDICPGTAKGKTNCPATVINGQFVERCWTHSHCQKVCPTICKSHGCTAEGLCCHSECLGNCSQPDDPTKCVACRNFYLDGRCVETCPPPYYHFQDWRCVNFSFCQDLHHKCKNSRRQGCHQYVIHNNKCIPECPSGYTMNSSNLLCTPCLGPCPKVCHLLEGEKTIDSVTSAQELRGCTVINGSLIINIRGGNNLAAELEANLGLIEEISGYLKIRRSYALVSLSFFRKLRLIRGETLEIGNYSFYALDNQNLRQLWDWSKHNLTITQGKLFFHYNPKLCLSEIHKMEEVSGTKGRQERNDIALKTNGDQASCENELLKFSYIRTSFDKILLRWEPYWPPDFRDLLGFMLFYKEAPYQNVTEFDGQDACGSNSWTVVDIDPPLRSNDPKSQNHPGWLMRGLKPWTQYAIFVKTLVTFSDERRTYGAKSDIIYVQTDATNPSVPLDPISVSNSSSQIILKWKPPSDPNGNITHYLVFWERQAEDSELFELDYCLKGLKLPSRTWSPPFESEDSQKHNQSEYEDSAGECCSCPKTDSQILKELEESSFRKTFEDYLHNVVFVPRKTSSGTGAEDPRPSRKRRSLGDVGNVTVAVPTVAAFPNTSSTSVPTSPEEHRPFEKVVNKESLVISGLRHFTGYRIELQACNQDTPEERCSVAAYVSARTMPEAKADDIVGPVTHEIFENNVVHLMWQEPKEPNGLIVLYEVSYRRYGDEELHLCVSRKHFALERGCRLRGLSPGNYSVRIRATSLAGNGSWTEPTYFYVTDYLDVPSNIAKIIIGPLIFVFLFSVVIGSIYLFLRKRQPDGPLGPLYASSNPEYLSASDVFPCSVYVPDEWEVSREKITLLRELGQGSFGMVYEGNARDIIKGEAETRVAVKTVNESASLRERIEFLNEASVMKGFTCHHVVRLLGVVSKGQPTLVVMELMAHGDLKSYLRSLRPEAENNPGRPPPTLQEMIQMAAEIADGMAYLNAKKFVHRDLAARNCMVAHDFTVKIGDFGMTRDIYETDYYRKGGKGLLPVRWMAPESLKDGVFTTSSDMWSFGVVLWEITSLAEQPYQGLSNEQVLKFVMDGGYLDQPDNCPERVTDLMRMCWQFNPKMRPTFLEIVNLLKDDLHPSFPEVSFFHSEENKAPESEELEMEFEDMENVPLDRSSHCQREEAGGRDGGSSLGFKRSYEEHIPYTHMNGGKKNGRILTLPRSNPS
T11 sequence (P11309 whole entry): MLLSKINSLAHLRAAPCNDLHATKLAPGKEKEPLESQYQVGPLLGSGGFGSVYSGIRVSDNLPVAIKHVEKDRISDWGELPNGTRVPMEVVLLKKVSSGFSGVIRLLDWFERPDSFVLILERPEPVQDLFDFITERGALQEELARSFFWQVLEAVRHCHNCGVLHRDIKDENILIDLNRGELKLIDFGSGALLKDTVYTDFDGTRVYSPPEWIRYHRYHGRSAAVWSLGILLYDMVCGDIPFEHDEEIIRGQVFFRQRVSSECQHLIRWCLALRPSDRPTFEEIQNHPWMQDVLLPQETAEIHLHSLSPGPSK
T5 sequence (P00533 25-1210 T790M): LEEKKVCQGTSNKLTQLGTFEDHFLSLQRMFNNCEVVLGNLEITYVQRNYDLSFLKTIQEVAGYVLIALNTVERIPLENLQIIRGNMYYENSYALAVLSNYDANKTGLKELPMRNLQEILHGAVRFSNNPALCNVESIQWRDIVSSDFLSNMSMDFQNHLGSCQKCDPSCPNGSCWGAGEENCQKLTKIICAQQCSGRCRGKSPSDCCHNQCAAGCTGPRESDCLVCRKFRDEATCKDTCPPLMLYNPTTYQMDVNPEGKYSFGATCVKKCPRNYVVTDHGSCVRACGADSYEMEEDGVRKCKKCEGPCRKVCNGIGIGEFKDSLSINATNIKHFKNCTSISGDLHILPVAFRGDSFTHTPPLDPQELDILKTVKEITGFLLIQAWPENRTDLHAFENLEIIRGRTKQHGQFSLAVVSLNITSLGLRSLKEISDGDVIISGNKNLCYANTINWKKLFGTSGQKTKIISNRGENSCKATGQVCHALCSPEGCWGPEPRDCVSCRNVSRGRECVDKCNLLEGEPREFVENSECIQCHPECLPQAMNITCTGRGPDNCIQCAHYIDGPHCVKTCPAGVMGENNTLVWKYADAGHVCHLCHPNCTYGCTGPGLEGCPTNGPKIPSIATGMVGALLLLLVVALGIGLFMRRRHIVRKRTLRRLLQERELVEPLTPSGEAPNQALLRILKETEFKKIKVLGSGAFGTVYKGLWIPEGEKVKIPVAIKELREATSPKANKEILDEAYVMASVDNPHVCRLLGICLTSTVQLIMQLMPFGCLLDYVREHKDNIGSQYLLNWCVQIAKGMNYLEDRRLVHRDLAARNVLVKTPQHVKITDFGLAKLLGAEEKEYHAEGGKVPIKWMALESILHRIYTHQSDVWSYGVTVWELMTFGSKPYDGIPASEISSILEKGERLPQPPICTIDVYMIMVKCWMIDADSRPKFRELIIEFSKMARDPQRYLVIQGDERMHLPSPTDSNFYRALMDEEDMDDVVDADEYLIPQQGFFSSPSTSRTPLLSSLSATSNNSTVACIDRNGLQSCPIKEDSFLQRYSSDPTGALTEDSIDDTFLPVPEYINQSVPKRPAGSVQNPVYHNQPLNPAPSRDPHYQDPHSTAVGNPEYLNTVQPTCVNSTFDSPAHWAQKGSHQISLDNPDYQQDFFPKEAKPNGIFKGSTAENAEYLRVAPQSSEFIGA

On to `CNC(=O)c1cccc(C)c1Nc1nc(Nc2ccc(N3CCN(C4C5CC6CC4CC(O)(C6)C5)CC3)cc2OC)ncc1C(F)(F)F` (stereo not drawn) [SJP1602, 2-((2-((4-(4-((2s,5r)-5-hydroxyadamantan-2-yl)piperazin-1-yl)-2-methoxyphenyl)amino)-5-(trifluoromethyl)pyrimidin-4-yl)amino)-N,3-dimethylbenzamide], for which the remaining activity at 1 µM at HIPK2(h) turned out to be 100%; at Flt3(h), 77%; on NIM1(h) it was 95%; on EGFR(T790M)(h) it was 119%; at Snk(h), 105%; at EGFR(L861Q)(h), 120%. Besides, the remaining activity at 1 µM was 108% at DAPK1(h), 100% on HIPK3(h), 87% at Flt3(D835Y)(h) and 87% at Pim-1(h). Also, on IR(h), activated, the “residual kinase activity IR(h), activated” value came to 61.
On to `CNC(=O)c1ccc(Nc2ncc(C(F)(F)F)c(NCc3nccnc3N(C)S(C)(=O)=O)n2)cc1` [VS-6063, Defactinib], for which the remaining activity at 1 µM on HIPK2(h) was determined as 16%; on Flt3(h), 6%; at NIM1(h) it was 78%; on EGFR(T790M)(h), 82%; at Snk(h) it was 64%; at EGFR(L861Q)(h), 128%. Moreover, the remaining activity at 1 µM on DAPK1(h) was 94%; on HIPK3(h), 54%; on Flt3(D835Y)(h) it was 7%; on Pim-1(h), 86%. For the same compound, the “residual kinase activity IR(h), activated” value at IR(h), activated was determined as 30.
On to `CONC(=O)c1ccccc1Nc1cc(Nc2cc(C)nn2C(C)C)ncc1Cl` [GSK2256098], for which the remaining activity at 1 µM amounted to 94% at HIPK2(h); 108% at Flt3(h); 85% on NIM1(h); 106% at EGFR(T790M)(h); 113% at Snk(h); 69% on EGFR(L861Q)(h). For the same compound, the remaining activity at 1 µM on DAPK1(h) came to 83%; at HIPK3(h), 106%; at Flt3(D835Y)(h) it was 76%; on Pim-1(h) it was 87%. Moreover, on IR(h), activated, the “residual kinase activity IR(h), activated” value amounted to 76.
